Values of other authors as cited in publication PMC5354290 (PLoS ONE, 2017).

Experiments:
[1] = test system: rat model of spared nerve injury; conditions: in vivo, iv
[2] = test system: rat model of formalin-induced pain; conditions: in vivo, iv
[3] = test system: rNaV1.3
[4] = test system: rNaV1.5
[5] = test system: rat NaV1.2
[6] = test system: rNaV1.4

Compound | effective dose, times lower than those usually required for analgesia [1] | effective dose, times lower than those usually required for analgesia [2] | inhibition (in words) [3] | inhibition (in words) [4] | inhibition (in words) [5] | inhibition (in words) [6]
CN1CC[C@]23c4c5ccc(O)c4O[C@H]2[C@@H](O)C=C[C@H]3[C@H]1C5 [morphine] | at least 20 times | at least 20 times |  |  |  | 
Huwentoxin-IV [HwTx-IV] |  |  | inhibits | far less potent | inhibits | far less potent
